These results are taken from patent publication US7666846B2, “Cholesterol-containing compounds and their use as immunogens against Borrelia burgdorferi” (The United States of America as represented by the …, priority 2003, dated 2010).

Entries after “also recorded” stand apart in the source; their conditions may differ.

Experiment [1] can be described thus: ELISA and TLC overlay assays of antibodies raised against the synthetic analog. It is filed as in vivo. How it is done:
Immunostaining of membrane lipids was performed as previously described (15). Developed chromatogram plates, containing lipid spots, were coated with polyisobutyl-methacrylate solution (0.05% in hexane) and allowed to dry. The plates were then blocked with PBS containing 1% BSA and 0.05% tween 20 for 15 minutes, and then incubated with anti BBGL-II antiserum, diluted 1:100 in PBS-BSA buffer for 1 hour at 22° C. The plates were rinsed 5 times with PBS-BSA buffer and incubated with alkaline phosphatase-conjugated rat anti mouse IgG (KPL, MD) diluted 1:25,000 in PBS-BSA for 1 hour at 22° C. The plates were then washed, and developed using BCIP/NBT (KPL, MD).
In general terms: An ELISA detects its analyte on a solid surface through an enzyme-linked reagent.

The next experiment concerns mice. As to the kind of experiment: Immunization of mice with glycolipid, antibody titers by ELISA. The experiment is classed as in vivo, NIH Swiss albino mice. How it is done:
FIG. 11 is a graph showing antibody titers of sera from ice immunized with the glycolipid of formula B. Mice (10 mice per group) were immunized as described below, with the glycolipid of formula B in Freund's adjuvant (CFA); PBS; DMSO, or squalene. Antibody titers were determined by an ELISA in sera diluted 1:100, and are represented as an average of three independent assays. Brackets, standard deviation.
(§1) Immunization and Immunostaining—Groups of ten female NIH Swiss albino mice (5-6 weeks old, general purpose) were immunized intraperitoneally with 2 doses of BBGL-II emulsified in complete Freund's adjuvant (first dose) or incomplete Freund's adjuvant (second dose) two weeks apart. The doses contained 10 μg BBGL-II per 0.1 ml and were administered IP in 0.1 ml. Alternatively, mice were immunized three times, 2 weeks apart, with 10 μg of BBGL-II emulsified in 0.1 ml of DMSO, squalene, or PBS. Mice were bled 2 weeks after the second dose and the sera thus obtained was kept at −20° C. until used. Rabbits (females, New Zealand White, 8 weeks old) were immunized with two doses of BBGL-II, 75 μg each, in Fruend's adjuvant, administered i.m. and i.c. in 20×0.05 ml.

The test system of the next experiment is rabbits. As to the kind of experiment: Immunization of rabbits with glycolipid, antibody titers by ELISA. The experiment is classed as in vivo, New Zealand White rabbits. The method, then: FIG. 10 is a graph showing antibody titers of sera from rabbits immunized with the glycolipid of formula B. Antibody titers were measured by an ELISA, as described below, and represent an average of four different rabbit sera, diluted 1:100, each tested in three independent assays. Open bars, IgG titers; gray bars, IgM titers; brackets, standard deviation.
as §1

Experiment [2] relates to immobilized polymixin B on agarose. Nature of the experiment: Affinity chromatography on Detoxi-Gel Endotoxin Removing Gel. The experiment is classed as binding. The settings on record: sonicated B. burgdorferi cells loaded; bound material eluted with 1% deoxycholic acid; TLC and immunolabeling. How it is done: Affinity Chromatography—BBGL-II was also purified by affinity chromatography using Detoxi-Gel Endotoxin Removing Gel (Pierce, Rockford, Ill.). Borrelia cells were washed 5 times with PBS, resuspended in the same buffer, and disrupted by ultrasonic treatment for 30 seconds, in a Branson sonifier operated at 50% duty cycles at 100 W. Membranes were separated from the soluble fraction by centrifugation at 37000 g for 30 minutes, and the supernatant (1 ml containing 1 mg total protein) was loaded on a detoxi-gel (agarose-immobilized-polymixin B) column (0.9×10 cm). The column was washed with 10 bed-volumes of PBS. Elution of the bound material was performed by washing with 10 bed volumes of PBS containing 1% Deoxycholic acid (w/v), according to the manufacturer's instructions. The bound fraction was dialyzed against distilled water, lyophilized, and lipids were extracted as mentioned.
This resin consists of immobilized polymixin B on agarose, and is used for the removal of endotoxins by binding to the lipid A portion of LPS.

Experiment [3] is described as follows: Antibodies induced by BBGL-III (data not shown). It is filed as in vivo.

As to `CC(C)CCCC(C)C1CCC2C3CC=C4CC(OC5OC(COC(=O)CCCCCCCCCCCCCCCN=[N+]=[N-])C(O)C(O)C5O)CCC4(C)C3CCC12C` (stereo not shown) [compound 19], the “antibodies raised, compared with purified native BBGL-II” value in experiment [1] is reported as “to the same extent as with the purified native BBGL-II”.
On to `CCCCCCCCCCCCCCCC(=O)OC[C@H]1O[C@@H](O[C@H]2CC[C@@]3(C)C(=CC[C@H]4[C@@H]5CC[C@H]([C@H](C)CCCC(C)C)[C@@]5(C)CC[C@@H]43)C2)[C@H](O)[C@@H](O)[C@H]1O` [BBGL-II, cholesteryl 6-O-palmitoyl-β-D-galactopyranoside], for which the “relative immunogenicity by formulation” value in the experiment on mice (in PBS (likely as micelles) compared with solute in DMSO or squalene) was “more immunogenic than as a solute in DMSO or squalene”. Besides, the “isotype of elicited antibodies” value in the experiment with mice (mice) and in the experiment with rabbits was “mostly of the IgM isotype” throughout. Moreover, the “specificity of elicited antibodies” value in the experiment with mice (mice) and in the experiment with rabbits was “specific to the homologous glycolipid” each time. In addition, the induction of antibodies result in the experiment with mice (mice injected with various formulations) and in the experiment with rabbits (Freund's adjuvant) was “Specific antibodies were induced; also recorded: elicited antibodies” in each case. Moreover, the “antibody titers by formulation” value in the experiment on mice (with Freund's adjuvant, compared with PBS, DMSO, squalene) is given as “Highest titers”.
Take “1,2-diacyl-3-[O-α-D-galactopyranosyl]-sn-glycerol [BBGL-III]”: in experiment [2], the “binding to Detoxi-Gel (polymixin B) column” value is on record as “not bound to the column”. In addition, the “isotype of induced antibodies” value in experiment [3] (data not shown) is listed as “mostly IgM”. In addition, the induction of antibodies entry in experiment [3] (data not shown, species not stated) is “induced antibodies; also recorded: elicited antibodies”. The “reactivity of induced antibodies with BBGL-II and BBGL-III” value in experiment [3] (in vivo) is recorded as “reacted with both glycolipids”.
